Laboratory results from US20070010463A1, “Remedies for diseases caused by strengthened vascular smooth muscle using 14-membered ring macrolid compounds” (priority 2003, published 2007).
Like-named read-outs stand apart in the source and are kept apart here.

Key:
[1] = system: human coronary vascular smooth muscle cells (CASMCs); test: Inhibition experiment of the proliferation of CASMCs (WST-1 formazan assay, absorbance 450 nm); format: cell-based
Method: The CASMCs were purchased from Clonetics Co., and cultured at 37° C., 5% CO2 using an attached culture kit (SmGM-2) in a culture medium comprising 5% fetal bovine serum (FBS), 2 ng/ml human basic fibroblast growth factor (b-FGF), 5 μg/ml bovine insulin, and 0.5 ng/ml human epidermal growth factor.
The CASMCs were cultured in a 96-well plate as in the Example 1 so that about 70˜80% of the area of each well was occupied by the cells, then put into a nutrition-depletion state for 24 hours under a non-serum condition. Roxythromycin (RXM) was then added as a test compound to the culture medium to give various concentration (0.1, 1.0, 10, 100 μg/ml) and the cells were cultured further for 24˜72 hours. The degree of growth of the cells was assayed at each elapsed time by formazan-formation coloring test with WST-1 agent using Takara Premix WST-1 Cell Proliferation Assay System Kit. Actually, Premix WST-1 was added 10 μl each followed by detection of absorbance at 450 nm by means of a plate reader.
The same experiments were conducted using other anti-bacterial and anti-fungal agents.

[2] = system: human coronary vascular smooth muscle cells (CASMCs); test: Cell cycle analysis of CASMCs by flow cytometry (propidium iodide); format: cell-based; conditions: RXM 10 μg/ml, FIG. 3
Method: A further experiment was done using a flow cytometry in order to study when the RXM's direct inhibition activity of the proliferation of CASMCs was effected in a cell cycle.
The flow cytometry method was carried out in accordance with the following procedures and conditions.
The cells were fixed with 70% ethanol for 30 min and incubated with RNase (5 μg/ml) for 30 min. They were then incubated with propidium iodide (10 μg/ml) for 30 min, followed by detection with FACScan (Becton Dickinson Co.).
The transition ratio of the cell cycle was obtained by DNA histogram analysis with ModFit LT software, and shown as % for the total cells.

[3] = system: phosphorylated Rb (retinoblastoma gene products); test: Western blot analysis of phosphorylated Rb in mitogen-stimulated CASMCs; format: cell-based, human; conditions: RXM 1-10 μg/ml, FIG. 4
Method: It was analyzed whether or not the RXM's inhibition of the stage from G1 phase to S phase of CASMCs was based on the inhibition of phophorylation of Rb (retinoblastoma gene products) that was supposed to be an essential intracellular molecule for transition in the cell cycle. The analysis was carried out using phosphorylated Rb as a marker by means of Western blot with a monoclonal antibody specifically recognizing phosphorylated Rb (Cell Signaling Technology Co.).
As a level of phosphorylated Rb was so low in normal conditions that it could not be detected by Western blot under normal conditions, the analysis was actually done after 5% FBS, 2 ng/ml human b-FGF, 5 μg/ml bovine insulin, and 0.5 ng/ml human epidermal growth factor had been added to the culture medium in order to stimulate CASMCs with mitogens up to an activated state and to increase an amount of the expressed phosphorylated Rb.
Western blot was carried out as follows. After the completion of SDS gel electrophoresis, the resulting bands were transferred to PVDF membrane, blocked with dry milk, incubated successively with a first antibody (anit-phosphorylated Rb rabbit antibody) and a labeled second antibody (anti-rabbit IgG mouse antibody), developed using alkaline phosphatase immuno blot kit and determined by means of a densitometer. […]

[4] = system: CDKIs-p27; test: Western blot analysis of CDKIs-p27 expression in mitogen-stimulated CASMCs; format: cell-based, human; conditions: RXM 1-10 μg/ml, under stimulation with the mitogens, FIG. 5
Method: (§1) Western blot was carried out as follows. After the completion of SDS gel electrophoresis, the resulting bands were transferred to PVDF membrane, blocked with dry milk, incubated successively with a first antibody (anit-phosphorylated Rb rabbit antibody) and a labeled second antibody (anti-rabbit IgG mouse antibody), developed using alkaline phosphatase immuno blot kit and determined by means of a densitometer. The operating conditions in these steps were standard ones known to those skilled in the art.
(§2) In order to examine what kind of modification of intracellular molecules was responsible for the RXM's inhibition of the production of phosphorylated Rb in CASMCs, the analysis was carried out by means of Western blot in the same conditions as in Example 5, focusing attention on […] (CDKIs) that was known to control the intracellular molecules, especially on its major molecules, CDKIs-p27 and CDKIs-p21.
(§3) As an expresssion level of both CDKIs-p27 and CDKIs-p21 was so low in a normal cell that it could not be detected by Western blot, the analysis was actually done on the cells activated after stimulation with the mitogens in the same way as in Example 5.

[5] = system: CDKIs-p21; test: Western blot analysis of CDKIs-p21 expression in mitogen-stimulated CASMCs; format: cell-based, human; conditions: RXM 1-10 μg/ml, under stimulation with the mitogens, FIG. 5
Method: as §1, §2, §3

[6] = background statement; cited from earlier work
[7] = system: mouse; conditions: cited from earlier work
[8] = 50 μg/ml, any time between 24 and 72 hours, FIG. 2

Q: For `C[C@@H]1[C@H](O)[C@@H](C)/C=C/C=C/C=C/C=C/C=C/C=C/C=C/[C@H](O[C@@H]2O[C@H](C)[C@@H](O)[C@H](N)[C@@H]2O)C[C@@H]2O[C@](O)(C[C@@H](O)C[C@@H](O)[C@H](O)CC[C@@H](O)C[C@@H](O)CC(=O)O[C@H]1C)C[C@H](O)[C@H]2C(=O)O` [Amphotericin B], which “inhibition of the proliferation of CASMCs” value (“inhibition … of CASMCs” below) ([1]; 50 ng/ml, any time between 24 and 72 hours, FIG. 2) is on record?
A: none

Q: With `CC1(C)S[C@@H]2[C@H](NC(=O)[C@H](N)c3ccccc3)C(=O)N2[C@H]1C(=O)O` [Ampicilin] as the compound, how does the “inhibition … of CASMCs” value [1, 8] read?
A: none

Q: With `CC[C@H]1OC(=O)[C@H](C)[C@@H](O[C@H]2C[C@@](C)(OC)[C@@H](O)[C@H](C)O2)[C@H](C)[C@@H](O[C@@H]2O[C@H](C)C[C@H](N(C)C)[C@H]2O)[C@](C)(O)C[C@@H](C)/C(=N\OCOCCOC)[C@H](C)[C@@H](O)[C@]1(C)O` [RXM, roxithromycin] as the compound, how does the “inhibition … of CASMCs” value ([1]; RXM 1 μg/ml, any time during the observation (24-72 hours), vs RXM non-added group, FIG. 1A) read?
A: inhibited the proliferation of CASMCs to a statistically significant level

Q: What about the “inhibition … of CASMCs” value ([1]; RXM 10 μg/ml, any time during the observation (24-72 hours), vs RXM non-added group, FIG. 1A) of the same compound?
A: inhibited the proliferation of CASMCs to a statistically significant level

Q: What about the “inhibition … of CASMCs” value ([1]; range of 1-100 μg/ml, drug-dependence manner, vs RXM non-added group, FIG. 1B) of the same compound?
A: inhibited the proliferation of CASMCs to a statistically significant level in a drug-dependence manner

Q: And the “inhibition of the stage from G1 phase to S phase in a cell cycle” value [2]?
A: inhibited a stage from G1 phase to S phase in a cell cycle to a statistically significant level

Q: What about the “inhibition of the stage from S phase to G2/M phase” value [2] of the same compound?
A: did not inhibit

Q: And the “production of phosphorylated Rb in CASMCs” value [3]?
A: clearly inhibited

Q: What about the “expression of CDKIs-p27 in CASMCs” value [4] of the same compound?
A: clearly increased in a RXM concentration-dependency manner

Q: What about the “expression of CDKIs-p21” value [5] of the same compound?
A: no clear difference was observed

Q: Which cytotoxicity [6] does the source give for `CO[C@H]1C[C@@H]2CC[C@@H](C)[C@@](O)(O2)C(=O)C(=O)N2CCCC[C@H]2C(=O)O[C@H]([C@H](C)C[C@@H]2CC[C@@H](O)[C@H](OC)C2)CC(=O)[C@H](C)/C=C(\C)[C@@H](O)[C@@H](OC)C(=O)[C@H](C)C[C@H](C)/C=C/C=C/C=C/1C` [Rapamycin, rapamycin] here?
A: strong cytotoxicity

Q: Which “Acute toxicity (mouse LD50)” value ([7]; interperitoreal) does the source give for `CC[C@H]1OC(=O)[C@H](C)[C@@H](O[C@H]2C[C@@](C)(OC)[C@@H](O)[C@H](C)O2)[C@H](C)[C@@H](O[C@@H]2O[C@H](C)C[C@H](N(C)C)[C@H]2O)[C@](C)(O)C[C@@H](C)C(=O)[C@H](C)[C@@H](O)[C@]1(C)O.Cl` [erythromaycin hydrochloride, erythromaycin] here?
A: 490 ± 30.4 mg/kg

Q: And the “Acute toxicity (mouse LD50)” value ([7]; vein)?
A: 425.6 ± 15.7 mg/kg

Q: With Gentamicin as the compound, how does the “inhibition … of CASMCs” value [1, 8] read?
A: none
